Reference: patent publication EP0091090A2, “Bipyridine substituted imidazolidene copper complex and its use in food-producing animals, and bipyridine, 2,2'-(2-imidazolidinylidene) di-copper complex and use in animals” (INTERNATIONAL MINERALS & CHEMICAL CORPORATION, priority 1982, dated 1983)
“And” between values parts separate entries of the source, which are not always exact repeats. Equal values may be shown once. Read-outs that look alike come from different tables or passages of the source.

Columns and labels:
[1] = system: rumen fluid batch culture; assay: Batch rumen VFA and gas production screen (Example 8); format: cell-based, steers
Procedure: The above Formula II composition was tested to determine its effectiveness as a feed additive for ruminants. The initial tests were in rumen fluid batch culture systems to determine the effect of the compound on volatile fatty acid/methane ratios (VFA/CH4).
A 50/50.mixture of ground corn and ground alfalfa was used as the substrate for the subject rumen fluid batch culture test. The compound (Formula II) was present in the rumen fluid at 75 ppm.
On day 1, rumen fluid was obtained from mature fistulated steers on 50/50 concentrate/roughage diets. The rumen fluid (RF) was strained through three layers of gauze cloth and equilibrated with C02 gas. Wheaton serum vials (125 ml) were prepared ahead with 20 ml continuous batch buffer and 100 mg 50/50 ground corn/ground alfalfa. Controls and compounds (dissolved in acetone) were set up according to indicated levels. The vials were kept under C02 gas until 20 ml of the strained RF was added. The vials were sealed and incubated at 39°C for 24 hours in a hot water bath. On successive days, gas samples (0.1 ml) were drawn for gas chromatography analysis before transferring 20 ml of the batch culture to another vial containing 20 ml of buffer, 100 mg substrate, and the corresponding compound. The remaining 20 ml was inoculated with 2 ml 6N HCl and centrifuged at 15,000 rpm for 15 minutes. Ether extracts were prepared for volatile fatty acid (VFA) analysis. Some minor adjustments were made in the temperatures on the Hewlett-Packard 5750 Gas-Liquid Chromatograph used for VFA analysis when the glass column used was changed from 1/2 inch diameter to 1J8 inch diameter.
About 4 minutes was needed to record the sample.
In the above tests, four control groups were run and the mean established.

[2] = system: rumen fluid batch culture; assay: Rumen fluid batch culture test: volatile fatty acid, gas (CH4 + H2), protein and amino acid accumulation (Example 2); format: cell-based, steers
Procedure: The above Formula IV composition was tested to determine its effectiveness as a feed additive for ruminants. The initial tests were in rumen fluid batch culture systems to determine the effect of the compound on volatile fatty acid/methane ratios (VFA/CH4). […] Test Procedure: A 50/50 mixture of ground corn and ground alfalfa was used as the substrate for the subject rumen fluid batch culture test. The compound (Formula IV ) was present in the rumen fluid in three separate test samples at 8.33, 25 and 75 ppm, respectively. On day 1, rumen fluid was obtained from mature fistulated steers on 50/50 concentrate/roughage diets. The rumen fluid (RF) was strained through three layers of gauze cloth and equilibrated with C02 gas. Wheaton serum vials (125 ml) were prepared ahead with 20 ml continuous batch buffer and 100 mg 50/50 ground corn/ground alfalfa. Controls and compounds (dissolved in acetone) were set up according to desired levels. The vials were kept under C02 gas until 20 ml of the strained RF was added. The vials were sealed and incubated at 39°C for 24 hours in a hot water bath. On successive days, gas samples (0.1 ml) were drawn for gas chromatography analysis before transferring 20 ml of the batch culture to another vial containing 20 ml of buffer, 100 mg substrate, and the corresponding compound. The remaining 20 ml was inoculated with 2 ml 6N HC1 and centrifuged at 15,000 rpm for 15 minutes. Ether extracts were prepared for volatile fatty acid (VFA) analysis. Some minor adjustments were made in the termperatures on the Hewlett-Packard 5750 Gas-Liquid Chromatograph used for VFA analysis when the glass column used was changed from 1/4 inch diameter to 1/8 inch diameter. Injection Port = 220°C Column Oven = 170°C Flame Detector = 250°C Only 4 minutes was needed to record the sample instead of the previous 7 minutes.

rumen microflora = assay: Batch culture assay for the degradation of starch (Example 3); format: cell-based, steers
Description: The subject Formula ^IV compound was also compared to monensin in another rumen fluid batch culture test as set forth below. The test was designed to screen compounds for inhibition of starch breakdown by the rumen microflora. […] It is considered more desirable to avoid degradation of starch in the rumen so that it is passed on into the abomasum where it can be digested more efficiently. […] Test Procedure: Animals - Mature fistulated steers were maintained on concentrate, roughage, or concentrate/ roughage (50/50) rations. Animals were fed twice daily at 8:00 A.M. and 4:00 P.M.
Culture Assays - Approximately two liters of rumen fluid were collected from fistulated animals with the use of a hand pump. The rumen fluid, collected in a stoppered flask, was then immediately taken to the laboratory for processing. Samples were taken at 8:00 A.M. just prior to the first feeding or at 1:00 P.M. (ca. 4-5 hours after the first feeding). Rumen fluid was strained through six layers of cotton gauze cloth into a flask that was flushed with C02 gas. The filtrate was centrifuged for 5 minutes at 100 rpm in a Sorvall centrifuge to remove large particulate material. The supernatant was again passed through six layers of gauze into a flask under C02 gas and stoppered.
Batch Culture Assay for the Degradation of Starch - Twenty-five ml of rumen fluid prepared as above was added to serum vials (Wheaton Glass, 100 ml capacity) containing 0.25-1.00% final concentration starch as an energy substrate in 25 ml batch culture assay buffer. The serum vials were sealed under C02 gas phase, and incubations were carried out for 20-24 hours at 39°C on a New Brunswick rotary shaker (250 rpm). Each experimental vial was done in triplicate. The corn starch used in degradation experiments was previously washed with distilled water several times, filtered through an 8 micron (47 mm) Millipore filter, and dried at 90°C for 24 hours.
At intervals of 0 and 24 hours, the entire contents in vials were centrifuged at 250 rpm for 5 minutes. The supernatants were carefully removed with a pipet and the remaining "starch pellets" resuspended in water and passed through borosilicate glass microfiber prefilters (Millipore AP 20-047-00). Filters were dried in an oven for 24 hours at 90°C, cooled and then weighed. The amount of starch remaining after 24 hours' incubation was compared with the amount present at 0 hours and the per cent of substrate degraded calculated.

[3] = Chick rye diet test system (Example 6); format: in vivo; conditions: compared to positive control (penicillin or bacitracin)
Description: The Formula III compound can be tested in a chick rye diet test system. […] Useful antibiotics for the positive control comparison are penicillin or bacitracin.

[4] = 75 ppm, single runs of duplicate

CC[C@@]1([C@@H]2O[C@@H]([C@H]3O[C@@](O)(CO)[C@H](C)C[C@@H]3C)C[C@@H]2C)CC[C@H]([C@]2(C)CC[C@]3(C[C@H](O)[C@@H](C)[C@@H]([C@@H](C)[C@@H](OC)[C@H](C)C(=O)O)O3)O2)O1 [Monensin, reference compound]
Acetate [1]: 7.2 Mu Moles/ml and 5.6 Mu Moles/ml | Acetate, Mean [1]: 6.4 Mu Moles/ml | Butyrate [1]: 7.8 Mu Moles/ml and 7.9 Mu Moles/ml | Butyrate, Mean [1]: 7.6 Mu Moles/ml | CH4 (%) [1]: 5.6% and 6.2% | CH4 (%), Average [1]: 5.8% | CH4, Percent Change [1]: -49.4% | H2 (%) [1]: 0.0% | H2 (%), Average [1]: 0.0% | Propionic [1]: 20.7 Mu Moles/ml and 18.7 Mu Moles/ml | Propionic, Mean [1]: 19.7 Mu Moles/ml | Total [1]: 32.2 Mu Moles/ml | Total, Mean [1]: 38.8 Mu Moles/ml | AA [2]: 0.51 µmol/mL and 0.28 µmol/mL and 0.29 µmol/mL and 0.34 µmol/mL and 0.30 µmol/mL and 0.44 µmol/mL | CH4 produced on Day 10 [2]: 49 | Caloric Value of CH4 [2]: 10.33 | Caloric Value of H2 [2]: 0 | Caloric Value of HAc [2]: 105.04 | Caloric Value of HBu [2]: 50.34 | Caloric Value of HFo [2]: 0.98 | Caloric Value of HPr [2]: 180.46 | Caloric Value of HiBu [2]: 5.11 | Caloric Value of HiVal [2]: 2.17 | Caloric Value, Total (VFA's) [2]: 344.10 | Gross Cal Remaining in Feed [2]: 364.76 cal | H2 [2]: 0 µ Moles | H2 produced on Day 10 [2]: 0 | HAc (acetate) produced on Day 10 [2]: 501.6 | HBu (butyrate) produced on Day 10 [2]: 96.8 | HFo (formate) produced on Day 10 [2]: 15.60 | HPr (propionate) produced on Day 10 [2]: 494.4 | HiBu (isobutyrate) produced on Day 10 [2]: 14.0 | HiVal (isovalerate) produced on Day 10 [2]: 3.2 | Total VFA's produced on Day 10 [2]: 1,125.6 | effect on starch fermentation (rumen microflora): neither monensin or lasalocid had any effect

CC[C@@H](C(=O)[C@@H](C)[C@@H](O)[C@H](C)CCc1ccc(C)c(O)c1C(=O)O)[C@H]1O[C@](CC)([C@H]2CC[C@](O)(CC)[C@H](C)O2)C[C@@H]1C [lasalocid, reference compound]
effect on starch fermentation (rumen microflora; 25 ppm): neither monensin or lasalocid had any effect

Pyridine, 2,2'-(2-imidazolidinyl- idene)di-, compound with CuCl2 (1/1) [Formula II Compound]
acetate production ([1]; 75 ppm): depressed acetate production compared to the negative control, and was comparable to monensin | CH4 (%), Average ([1]; 75 ppm, average): 11.0% | H2 (%), Average ([1]; 75 ppm, average): 0.0% | CH4, Percent Change ([1]; 75 ppm, change versus control average, 1440 min): -6.0% | Acetate, Mean ([1]; 75 ppm, mean of duplicate): 8.0 Mu Moles/ml | Butyrate, Mean ([1]; 75 ppm, mean of duplicate): 9.6 Mu Moles/ml | Propionic, Mean ([1]; 75 ppm, mean of duplicate): 14.8 Mu Moles/ml | Total, Mean ([1]; 75 ppm, mean of duplicate): 32.4 Mu Moles/ml | CH4 (%) ([1]; 75 ppm, single runs): 11.2% and 10.8% | H2 (%) ([1]; 75 ppm, single runs): 0.0% | Acetate [1, 4]: 6.8 Mu Moles/ml and 9.2 Mu Moles/ml | Butyrate [1, 4]: 8.9 Mu Moles/ml and 10.2 Mu Moles/ml | Propionic [1, 4]: 14.6 Mu Moles/ml and 15.0 Mu Moles/ml | Total [1, 4]: 38.4 Mu Moles/ml and 34.4 Mu Moles/ml | activity in rumen fluid batch culture tests ([1]; compared with iron and nickel salts of Formula I): best activity | propionate production ([1]; expected in tests to establish optimum dosage level): favorable shift to increased propionate production | activity in chick rye diet test [3]: promising activity
